# PMC4222603, “Dual inhibition of HIV-1 replication by integrase-LEDGF allosteric inhibitors is predominant at the post-integration stage” (Retrovirology, 2013)
# Read-outs that look alike come from different tables or passages of the source.
# Key:
# HIV-1 NL4-3 = assay: Antiviral assay in MT-4 cells, multiple-round infection, CellTiter-Glo; format: cell-based
# Procedure: MT-4 cells growing exponentially at the density of 10^6/mL were infected with HIV-1 strain NL4-3 at a MOI (multiplicity of infection) of 0.001 for 2 h. The cells were washed with PBS and aliquoted, using 100 μL fresh complete RPMI, into 96-well white plates (Corning) in the presence of different concentrations of compounds.
# [1] = test system: NL4-3 IN T174I mutant virus; format: cell-based, HIV-1
# [2] = test system: HIV-1 LAV virions produced by HeLa-LAV cells; assay: Virions produced by compound-treated HeLa-LAV cells: p24 and infectivity; format: cell-based; conditions: luciferase assay in TZM cells
# [3] = test system: VSV-G-pseudotyped NL4-3Δenv-luc; assay: microbe, parasite or virus in culture; format: cell-based, HIV-1; conditions: for EC50: Human immunodeficiency virus 1, NL43, MT4, read-out: NL4-3 EC50 Single-round
# HIV-1 NL4-3 wt = format: cell-based
# [4] = biological target: His6-IN A128T (HIV-1 NL4-3 integrase mutant A128T) (HIV-1 NL4-3); assay: SEC; Superdex 200 10/300 GL, 0.4 mL/min, 50 mM HEPES pH 7.5, 1 M NaCl, 7 mM CHAPS, 5 mM MgCl2, 10 mM DTT, 10% glycerol, room temperature; His6-IN wt 21 uM or His6-IN A128T 40 uM; no compound
# [5] = biological target: His6-IN A128T (HIV-1 NL4-3 integrase mutant A128T) (HIV-1 NL4-3); assay: SEC; Superdex 200 10/300 GL, 0.4 mL/min, 50 mM HEPES pH 7.5, 1 M NaCl, 7 mM CHAPS, 5 mM MgCl2, 10 mM DTT, 10% glycerol, room temperature; His6-IN wt 21 uM or His6-IN A128T 40 uM incubated for 10 min with 100 uM BI-D or Mut101 before injection
# [6] = biological target: His6-IN (HIV-1 NL4-3 integrase wild type, from pINSD.His) (HIV-1 NL4-3); assay: SEC; Superdex 200 10/300 GL, 0.4 mL/min, 50 mM HEPES pH 7.5, 1 M NaCl, 7 mM CHAPS, 5 mM MgCl2, 10 mM DTT, 10% glycerol, room temperature; His6-IN wt 21 uM or His6-IN A128T 40 uM; no compound
# [7] = biological target: His6-IN (HIV-1 NL4-3 integrase wild type, from pINSD.His) (HIV-1 NL4-3); assay: SEC; Superdex 200 10/300 GL, 0.4 mL/min, 50 mM HEPES pH 7.5, 1 M NaCl, 7 mM CHAPS, 5 mM MgCl2, 10 mM DTT, 10% glycerol, room temperature; His6-IN wt 21 uM or His6-IN A128T 40 uM incubated for 10 min with 100 uM BI-D or Mut101 before injection
# [8] = biological target: T1, IN 3′ processing activity (Human immunodeficiency virus type 1 group M subtype B, UniProt P12497); assay: IN 3′ processing radioactive assay; format: biochemical, HIV-1; conditions: at 100 nM
# T1 construct: were carried out at 37°C with the full-length HIV-1 IN
# Excerpt: (§1) Sequences of the different oligonucleotides (ODN) substrates are U5B: 5′-[…]-3′, U5A: 5′- […]-3′ and U5B-2: 5′-[…]-3′. ODNs were purchased from Eurogentec and further purified by electrophoresis in a denaturing 16% acrylamide/urea gel. For activity assays, ODNs (U5B and U5B-2) were radiolabelled with T4 polynucleotide kinase (New England Biolabs) and γ[^32-P]ATP (3000 Ci/mmol) (Amersham), and purified on a Sephadex G-10 column (GE Healthcare). Double-stranded ODNs (U5B with U5A and U5B-2 with U5A used for 3′-processing and strand transfer reactions, respectively) were obtained by mixing equimolar amounts of complementary strands in the presence of 100 mM NaCl.
# (§2) IN activity assays – 3′-processing, strand transfer – were carried out at 37°C with the full-length HIV-1 IN, in a buffer containing 10 mM HEPES (pH 7.2), 1 mM DTT, 7.5 mM MgCl2 in the presence of 6.25 nM DNA (3′-processing) or 12.5 nM DNA (strand transfer) as described previously. For negative control, 100 mM Na2EDTA was added to the reaction before incubation. Products were separated by electrophoresis in denaturing 16% acrylamide/urea gels. Gels were analysed with a Molecular Dynamics STORM phosphoimager and quantified with ImageQuant™ 4.1 software.
# [9] = biological target: T2, IN strand transfer activity (full-length HIV-1 IN) (Human immunodeficiency virus type 1 group M subtype B, UniProt P12497); assay: IN strand transfer radioactive assay; format: biochemical
# T2 construct: were carried out at 37°C with the full-length HIV-1 IN
# Excerpt: as §1, §2
# [10] = test system: NL4-3 Protease L10R, M46I, L63P, V82T, I84V; assay: Antiviral assay on PI-resistant virus; format: cell-based, HIV-1; conditions: ratio EC50 resistant virus / wt virus
# [11] = test system: NL4-3 Integrase G140S, Q148H; assay: Antiviral assay on INSTI-resistant virus; format: cell-based, HIV-1; conditions: ratio EC50 resistant virus / wt virus
# [12] = test system: NL4-3 RT M41L, D67N, T69N, K70R, T215F, K219E; assay: Antiviral assay on NRTI-resistant virus; format: cell-based, HIV-1; conditions: ratio EC50 resistant virus / wt virus
# NL4-3 RT K103N, Y181C = assay: Antiviral assay on NNRTI-resistant virus; format: cell-based, HIV-1; conditions: ratio EC50 resistant virus / wt virus
# [13] = test system: NL4-3 RT M41L, D67N, K103N, M184V, L210W, T215Y; assay: Antiviral assay on Multi-drug (NRTI + NNRTI) resistant virus; format: cell-based, HIV-1; conditions: ratio EC50 resistant virus / wt virus; NRTI + NNRTI mutations
# [14] = Human immunodeficiency virus 1, NL43, MT4 cells, mean of six independent experiments, read-out: NL4-3 EC50 Multiple-round
# [15] = HEK293T transfection, MT4 infection, CellTiter-Glo
molecule,measurement,setting,value
"CC(C)(C)NC(=O)[C@@H]1C[C@@H]2CCCC[C@@H]2CN1C[C@@H](O)[C@H](Cc1ccccc1)NC(=O)[C@H](CC(N)=O)NC(=O)c1ccc2ccccc2n1 [SQV, Saquinavir, reference compound]",EC50,HIV-1 NL4-3; [14],13 nM
same,Infectivity of NL4-3 IN T174I virus produced in presence of compound,[1],sensitive to and inactivated
same,Infectivity of virions from treated HeLa-LAV cells,[2],strong virus infectivity defects
same,NL4-3 EC50 Single-round,[3],Inactive
same,Infectivity of NL4-3 wt virus produced in presence of compound,HIV-1 NL4-3 wt,sensitive to and inactivated
"Cc1nnc(C(=O)NC(C)(C)c2nc(C(=O)NCc3ccc(F)cc3)c(O)c(=O)n2C)o1 [RAL, Raltegravir, reference compound]",EC50,"HIV-1 NL4-3; Human immunodeficiency virus 1, NL43, MT4, read-out: EC50 NL4-3 WT",7 nM
same,EC50,"HIV-1 NL4-3; Human immunodeficiency virus 1, NL43, MT4, read-out: NL4-3 EC50 Multiple-round",2.4 ± 0.6 nM
same,Infectivity of NL4-3 IN T174I virus produced in presence of compound,[1]; [15],no effect
same,Infectivity of virions from treated HeLa-LAV cells,[2],no infectivity defect
same,EC50,[3],2.5 ± 0.3 nM
same,Infectivity of NL4-3 wt virus produced in presence of compound,HIV-1 NL4-3 wt; [15],no effect
His6-IN A128T (HIV-1 NL4-3 integrase mutant A128T) (enzyme),stoichiometry N,[4],2
same,stoichiometry N,[5],4
"His6-IN (HIV-1 NL4-3 integrase wild type, from pINSD.His) (enzyme)",stoichiometry N,[6],2
same,stoichiometry N,[7],4
"C[C@@H]1CCO[C@H]2Cn3cc(C(=O)NCc4ccc(F)cc4F)c(=O)c(O)c3C(=O)N12 [DTG, Dolutegravir, reference compound]",inhibition at 0.1 µM,[8],16%
same,IC50,[9],2.7 nM
"COc1cc2c(cc1Cc1cccc(Cl)c1F)c(=O)c(C(=O)O)cn2[C@H](CO)C(C)C [EVG, Elvitegravir]",EC50,"HIV-1 NL4-3; Human immunodeficiency virus 1, NL43, MT4, Table 3, mean of two independent experiments, read-out: EC50 NL4-3 WT",3 nM
same,EC50,HIV-1 NL4-3; [14],0.86 ± 0.4 nM
same,EC50 fold change PI,[10],1
same,EC50 fold change INSTIs,[11],2036
same,EC50 fold change NRTIs,[12],0.3
same,EC50 fold change NNRTIs,"NL4-3 RT K103N, Y181C",1
same,SR/MR ratio,[3],0.5
same,EC50,[3],0.42 ± 0.05 nM
same,EC50 fold change Multi-drug,[13],0.3
